Patent EP0447812B1, “Use of a dihydropyridine to improve the inner ear blood circulation” (FUJISAWA PHARMACEUTICAL CO., LTD., priority 1990, dated 1991)

Assays:
Rats = assay: Test 2: Rose Bengal/green light photoillumination of the oval window, nystagmus test and swimming test for imbalance 24 hours later; format: in vivo; details: 0.03 mg/kg intravenously at the beginning of photoillumination, 12 animals, dosage 0: 100 %
Experimental: Rats were anesthetized with pentobarbital, and with the body temperature maintained at 37°C with a heating pad, an aqueous solution of Rose Bengal was continuously infused into the femoral vein. The […] was then opened and the tympanic membrane, incus and malleus were removed taking care not to impair the inner ear.
Using a Hamamatsu Photonic xenon lamp, the oval window was irradiated with a green light of 540 nm via an optical fiber. Using a manipulator, the end of the fiber was fixed about 3 mm from the lateral wall of the cochlea.
Photoillumination was started 20 minutes after the beginning of Rose Bengal infusion and a solution of the test compound in polyethylene glycol (400)-water (1:1, v/v) was intravenously administered at the beginning of photoillumination. After 40 minutes of irradiation, both the photoillumination and Rose Bengal infusion were terminated, the wound was sutured, and the animal was allowed to regain consciousness. At 24 hours after termination of photoillumination, a nystagmus test and a swimming test for imbalance were performed.

Male Wistar rats = assay: Test 1: Rose Bengal/green light photo-illumination of the cochlear lateral wall, compound action potential (CAP) recorded by electrocochleography; format: in vivo; details: 0.3 mg/kg injected intravenously 10 minutes prior to photo-illumination; 6 animals; vehicle only 12.0 min.
Experimental: Male Wistar rats (body weights 240 - 260 g) were anesthetized with pentobarbital. After tracheotomy, the animals were artificially ventilated with a Harvard 683 respirator. A solution of Rose Bengal (RB) in saline (10 mg/ml) was infused into the femoral vein at a speed of 24 µmoles/kg per hour. After initiation of Rose Bengal infusion, the left middle ear was opened and, for electrocochleography, the round window lead electrode was fixed in position. Thus, after incision of the skin and muscle of the neck region, the tympanic cavity was drilled with a miniature drill and a silver ball electrode was placed on the round window membrane for use as an active electrode. An indifferent electrode was placed in the middle of the back of the head. Thirty minutes after initiation of Rose Bengal infusion, the lateral wall of the cochlea was irradiated with a green light (540 nm) conducted from a light source (L-3306-01A, Hamamatsu Photonics) through an optical fiber. Using a manipulator, the free end of the optical fiber was fixed about 5 mm away from the lateral wall of the cochlea. In this arrangement, the compound action potential (CAP) was recorded at 1-minute intervals. The electrocochleogram was recorded with Nihon Kohden Neuropack II by averaging 128 clicks of 8 kHz at a sound pressure level of 100 dB. […]

Structure (SMILES): COC(=O)C1=C(C#N)NC(C)=C(C(=O)OC(C)C)C1c1cccc([N+](=O)[O-])c1 (stereo not drawn) [dihydropyridine compound A, Isopropyl 6-cyano-5-methoxycarbonyl-2-methyl-4-(3-nitrophenyl)-1,4-dihydropyridine-3-carboxylate]
- Incidence (%) imbalance (Rats; swimming test 24 hours after termination of photoillumination): 58.3%
- Incidence (%) Nystagmus (Rats; tested 24 hours after termination of photoillumination): 58.3%
- Action potential disappearance time (Male Wistar rats): 14.5 min
